For orientation: pIC50 means the IC50 on a negative log10 scale, so that one unit is a factor of ten. A high value points to a small IC50.

Data on 26 compounds can be found in patent publication US20230174521A1, “NOVEL DIACYLGLYCERIDE O-ACYLTRANSFERASE 2 INHIBITORS” (Merck Sharp & Dohme LLC, priority 2020, published 2023).

pIC50: −log10 of the molar value.

In this assay the target is T1, human DGAT2 (hDGAT2) (Homo sapiens, UniProt Q96PD7).
T1 construct: made in house; host or cells: Sf-9 insect cells (baculovirus infection); membrane fraction
T1 sequence (Q96PD7 1-388): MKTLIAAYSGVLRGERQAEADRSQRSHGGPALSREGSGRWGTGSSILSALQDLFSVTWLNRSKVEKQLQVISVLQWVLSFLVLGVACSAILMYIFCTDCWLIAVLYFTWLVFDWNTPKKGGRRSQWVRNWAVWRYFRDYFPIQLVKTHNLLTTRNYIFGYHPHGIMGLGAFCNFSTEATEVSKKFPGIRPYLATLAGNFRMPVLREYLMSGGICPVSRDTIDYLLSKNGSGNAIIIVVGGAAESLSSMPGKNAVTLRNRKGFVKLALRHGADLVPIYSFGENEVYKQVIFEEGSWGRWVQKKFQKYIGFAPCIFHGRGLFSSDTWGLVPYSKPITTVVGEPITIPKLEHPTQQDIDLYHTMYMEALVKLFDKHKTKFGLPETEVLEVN
Briefly: DGAT2 enzymatic activity assay (LC/MS/MS detection of 13C18-triolein, Sf-9 membrane prep). In kind it is biochemical. The settings on record: hDGAT2 Sf-9 membrane, 25 μM diolein, 5 μM 13C oleoyl-CoA, rt. On the procedure: Sf-9 insect cells were maintained in Grace's insect cell culture medium with 10% heated-inactivated fetal bovine serum, 1% Pluronic F-68 and 0.14 μg/ml Kanamycine sulfate at 27° C. in a shaker incubator. After infection with untagged baculovirus expressing human DGAT2 (hDGAT2) at multiplicity of infection (MOI) 3 for 48 hours, cells were harvested. Cell pellets were suspended in buffer containing 10 mM Tris-HCl pH 7.5, 1 mM EDTA, 250 mM sucrose and Complete Protease Inhibitor Cocktail (Sigma Aldrich), and sonicated on ice. Cell debris were removed by centrifugation at 2000×g for 15 minutes. Membrane fractions were isolated by ultracentrifugation (100,000×g), resuspended in the same buffer, and frozen (−80° C.) for later use. The protein concentration was determined with the Pierce™ BCA Protein Assay Kit (Thermo Fisher Scientific). Expression of protein levels was analyzed by immunoblotting with rabbit anti-DGAT2 antibody (Abcam, ab102831) and donkey anti-rabbit IgG H&L Alexa Fluor® 647 (Abcam, ab150075) followed by detection using Typhoon FLA9000 (GE Healthcare).
LC/MS/MS analyses were performed using Thermal Fisher's LX4-TSQ Vantage system. This system consists of an Agilent binary high-performance liquid chromatography (HPLC) pumps and a TSQ Vantage triple quadrupole MS/MS instrument. For each sample, 2 μL samples from the top organic layer of in-plate liquid-liquid extraction were injected onto a Thermo Betabasic C4 column (2.1 mm×20 mm, 5 μm particle size). The samples were then eluted using the following conditions; mobile phase: Isopropanol: acetonitrile/10 mM ammonium formate=50/35/15 (v/v/v), flow rate: 0.8 mL/min, temperature: 25° C. Data was acquired in positive mode using a heated electrospray ionization (HESI) interface. The operational parameters for the TSQ Vantage MS/MS instrument were a spray voltage of 3000 V, capillary temperature of 280° C., vaporizer temperature 400° C., sheath gas 45 arbitrary unit, Aux gas 10 arbitrary units, S-lens 165 and collision gas 1.0 mTorr. […] (SRM) chromatograms of ^13C18-triolein (Q1: 920.8>Q3:621.3) and internal standard ^13C21-triolein (Q1: 923.8>Q3:617.3) were collected for 33 sec. The peak area was integrated by Xcalibur Quan software. The ratio between the ^13C18triolein generated in the reaction and spiked in internal standard ^13C21-triolein was used to generate percentage inhibition and IC50 values. Compound percentage inhibition was calculated by the following formula: Inhibition %=1−[(compound response−low control)/(high control−low control)]×100%. Potent compounds were titrated and IC50 were calculated by 4 parameter sigmoidal curve fitting formula.
DGAT2 activity was determined by measuring the amount of enzymatic product ^13C18-triolein (^13C-1,2,3-Tri(cis-9-octadecenoyl)glycerol) using the membrane prep mentioned above. The assay was carried out in ABgene 384-well assay plates in a final volume of 25 μL at rt. The assay mixture contained the following: assay buffer (100 mM Tris.Cl, pH 7.0, 20 mM MgCl2, 5% ethanol), 25 μM of diolein, 5 μM of ^13C oleoyl-CoA and 8 ng/μL of DGAT2 membrane.
Compound `CC(C)c1nn(-c2cccc(OC(F)F)c2)c2ncc(C(=O)NC3(C)CS(=O)(=O)C3)cc12` [Example 12] showed a pIC50 of 8.03.
With `CC(C)c1nn(-c2cccc(OC(F)F)c2)c2cnc(C(=O)NC3(C)CS(=O)(=O)C3)cc12` [Example 13], the pIC50 is 7.11.
As for `CCc1nn(-c2cccc(OC(F)F)c2)c2ccc(C(=O)NC3(C)CS(=O)(=O)C3)cc12` [Example 14, l-(3-(difluoromethoxy)phenyl)-3-ethyl-N-(3-methyl-1,1-dioxo-thietan-3-yl)indazole-5-carboxamide], the pIC50 is 7.96.
The compound `CCCc1nn(-c2cccc(OC(F)F)c2)c2ncc(C(=O)N[C@@]3(C)CCS(=O)(=O)C3)cc12` [Example 15, (S)-1-(3-(difluoromethoxy)phenyl)-N-(3-methyl-1,1-dioxidotetrahydrothiophen-3-yl)-3-propyl-1H-pyrazolo[3,4-b]pyridine-5-carboxamide] showed a pIC50 of 8.17.
With `CC(C)c1nn(-c2cccc(C3CC3)c2)c2ncc(C(=O)NC3(C)CS(=O)(=O)C3)cc12` [Example 16, l-(3-cyclopropylphenyl)-3-isopropyl-N-(3-methyl-1,1-dioxidothietan-3-yl)-1H-pyrazolo[3,4-b]pyridine-5-carboxamide], the pIC50 was 7.85.
`CC(C)c1nn(-c2cncc(OC(F)F)c2)c2ncc(C(=O)NC3(C)CS(=O)(=O)C3)cc12` [Example 17]: the pIC50 was 7.60.
Regarding `CC(C)c1nn(-c2cncc(OC(F)F)c2)c2ccc(C(=O)NC3(C)CS(=O)(=O)C3)cc12` [Example 18], the pIC50 is 7.25.
With `Cc1cc2c(cc1C(=O)NC1(C)CS(=O)(=O)C1)c(C(C)C)nn2-c1cccc(OC(F)F)c1` [Example 19], the pIC50 was 6.87.
In turn, `Cc1c(C(=O)NC2(C)CS(=O)(=O)C2)ccc2c1c(C(C)C)nn2-c1cccc(OC(F)F)c1` [Example 20] had a pIC50 of 8.30.
`CC1(NC(=O)c2cnc3c(c2)c(C2CCOCC2)nn3-c2cccc(OC(F)F)c2)CS(=O)(=O)C1` [Example 21] gave a pIC50 of 8.15.
Regarding `CC1(NC(=O)c2ccc3c(c2)c(C2(O)CCOCC2)nn3-c2cccc(OC(F)F)c2)CS(=O)(=O)C1` [Example 22], the pIC50 was 7.29.
`CC(C)(O)Cc1nn(-c2cccc(OC(F)F)c2)c2ncc(C(=O)NC3(C)CS(=O)(=O)C3)cc12` [Example 23] had a negative logarithm of the IC50 (pIC50) of 8.24.
As to `CC(C)(O)Cc1nn(-c2cc(OC(F)F)ccc2F)c2ncc(C(=O)NC3(C)CS(=O)(=O)C3)cc12` [Example 24, l-(5-(difluoromethoxy)-2-fluorophenyl)-3-(2-hydroxy-2-methylpropyl)-N-(3-methyl-1,1-dioxidothietan-3-yl)-1H-pyrazolo[3,4-b]pyridine-5-carboxamide], the negative logarithm of the IC50 (pIC50) was 8.19.
The compound `Cc1ncc(OC(F)F)cc1-n1nc(CC(C)(C)O)c2cc(C(=O)NC3(C)CS(=O)(=O)C3)cnc21` [Example 25, l-(5-(difluoromethoxy)-2-methylpyridin-3-yl)-3-(2-hydroxy-2-methylpropyl)-N-(3-methyl-1,1-dioxidothietan-3-yl)-1H-pyrazolo[3,4-b]pyridine-5-carboxamide] gave a pIC50 of 6.15.
As for `CC(C)c1nn(-c2cc(OCC(F)F)ncc2F)c2ncc(C(=O)NC3(C)CS(=O)(=O)C3)cc12` [Example 26, 1-(2-(2,2-difluoroethoxy)-5-fluoropyridin-4-yl)-3-isopropyl-N-(3-methyl-1,1-dioxidothietan-3-yl)-1H-pyrazolo[3,4-b]pyridine-5-carboxamide], the pIC50 was 8.66.
The compound `CC1(NC(=O)c2ccc3c(c2)c(C(F)F)nn3-c2cccc(OC(F)F)c2)CS(=O)(=O)C1` [Example 32, 1-(3-(difluoromethoxy)phenyl)-3-(difluoromethyl)-N-(3-methyl-1,1-dioxidothietan-3-yl)-1H-indazole-5-carboxamide] had a negative logarithm of the IC50 (pIC50) of 7.62.
On to `CC(C)(O)c1nn(-c2cccc(OC(F)F)c2)c2ccc(C(=O)N[C@@]3(C)CCS(=O)(=O)C3)cc12` [Example 33, (S)-1-(3-(difluoromethoxy)phenyl)-3-(2-hydroxypropan-2-yl)-N-(3-methyl-1,1-dioxidotetrahydrothiophen-3-yl)-1H-indazole-5-carboxamide], for which the pIC50 is 7.57.
Consider `CC(O)c1nn(-c2cccc(OC(F)F)c2)c2ccc(C(=O)N[C@@]3(C)CCS(=O)(=O)C3)cc12` (stereo partly drawn) [Example 34, 1-(3-(difluoromethoxy)phenyl)-3-(l-hydroxyethyl)-N-((S)-3-methyl-1,1-dioxidotetrahydrothiophen-3-yl)-1H-indazole-5-carboxamide], for which the pIC50 is 7.08.
Turning to `CC1(NC(=O)c2cc(Cl)c3c(c2)c(C(C)(C)O)nn3-c2cccc(OC(F)F)c2)CS(=O)(=O)C1` [Example 35, 7-chloro-1-(3-(difluoromethoxy)phenyl)-3-(2-hydroxypropan-2-yl)-N-(3-methy1-l,1-dioxidothietan-3-yl)-1H-indazole-5-carboxamide], the pIC50 is 8.04.
For `Cc1cc(C(=O)NC2(C)CS(=O)(=O)C2)cc2c(C(C)(C)O)nn(-c3cccc(OC(F)F)c3)c12` [Example 36, 1-(3-(difluoromethoxy)phenyl)-3-(2-hydroxypropan-2-yl)-7-methyl-N-(3-methyl-1,1-dioxidothietan-3-yl)-1H-indazole-5-carboxamide], the pIC50 is 7.23.
For the compound `CC1(NC(=O)c2cc(F)c3c(c2)c(C(C)(C)O)nn3-c2cccc(OC(F)F)c2)CS(=O)(=O)C1` [Example 37, l-(3-(difluoromethoxy)phenyl)-7-fluoro-3-(2-hydroxypropan-2-yl)-N-(3-methyl-1,1-dioxidothietan-3-yl)-1H-indazole-5-carboxamide], the pIC50 is 7.82.
Consider `CC1(NC(=O)c2cnc3c(c2)c(C2(O)CCC2)nn3-c2cccc(OC(F)F)c2)CS(=O)(=O)C1` [Example 39, l-(3-(difluoromethoxy)phenyl)-3-(l-hydroxycyclobutyl)-N-(3-methyl-1,1-dioxidothietan-3-yl)-lH-pyrazolo[3,4-b]pyridine-5-carboxamide], for which the negative-log IC50 (pIC50) is 7.82.
In the case of `CC1(NC(=O)c2cnc3c(c2)c(C(C)(C)O)nn3-c2cc(OC(F)(F)F)ccc2F)CS(=O)(=O)C1` [Example 40, l-(2-fluoro-5-(trifluoromethoxy)phenyl)-3-(2-hydroxypropan-2-yl)-N-(3-methyl-1,1-dioxidothietan-3-yl)-1H-pyrazolo[3,4-b]pyridine-5-carboxamide] it was 7.85; in that of `CC1(NC(=O)c2cnc3c(c2)c(C(C)(C)O)nn3-c2cc(OC(F)F)ccc2F)CS(=O)(=O)C1` [Example 41, l-(5-(difluoromethoxy)-2-fluorophenyl)-3-(2-hydroxypropan-2-yl)-N-(3-methyl-1,1-dioxidothietan-3-yl)-1H-pyrazolo[3,4-b]pyridine-5-carboxamide], 7.60; in that of `CC1(NC(=O)c2cnc3c(c2)c(C(C)(C)O)nn3-c2cccc(OC(F)(F)F)c2)CS(=O)(=O)C1` [Example 42, 3-(2-hydroxypropan-2-yl)-N-(3-methyl-1,1-dioxidothietan-3-yl)-1-(3-(trifluoromethoxy)phenyl)-1H-pyrazolo[3,4-b]pyridine-5-carboxamide], 6.97.
Compound `CC1(NC(=O)c2cnc3c(c2)c(C(C)(O)C(F)F)nn3-c2cccc(OC(F)F)c2)CS(=O)(=O)C1` (centres unmarked) [Example 43, 3-(1,1-difluoro-2-hydroxypropan-2-yl)-1-(3 - (difluoromethoxy)phenyl)-N-(3-methyl-1,1-dioxidothietan-3-yl)-1H-pyrazolo[3,4-b]pyridine-5-carboxamide] gave a pIC50 of 6.93.
